Measurements from US11471428B2, “Method and pharmaceutical composition for treating depression” (ZHEJIANG UNIVERSITY, priority 2017, dated 2022).
Structures can show the parent of a compound that is named as a salt.

How the values were obtained:
[1] = system: spontaneously bursting LHb neurons; test: Spontaneous bursts of LHb neurons in brain slices, bath application; assay type: cell-based
[2] = not told; cited from earlier work
[3] = system: silent LHb neurons; test: NMDA perfusion-induced bursting in originally silent LHb neurons; assay type: cell-based
[4] = system: cLH rats; test: Forced swim test (FST) after local bilateral infusion in LHb of cLH rats; assay type: in vivo, rat; settings: 1 ul each side
[5] = system: LHb neurons; test: In vivo multi-tetrode recording in the LHb of CRS mice; set-up: species or system mouse
[6] = system: C56BL/6 mice; test: Mouse forced swim test after i.p. administration; assay type: in vivo; settings: 1 hour after administration
[7] = system: cLH rats; test: Sucrose preference test (SPT) after local bilateral infusion in LHb of cLH rats; assay type: in vivo, rat; settings: 1 ul each side
[8] = system: LHb neurons; test: Whole cell patch recording of spontaneous activity of LHb neurons, cLH rat model; assay type: cell-based; settings: LHb slices of cLH rats
[9] = system: LHb neurons; test: Whole cell patch recording of spontaneous activity of LHb neurons, CRS mouse model; assay type: cell-based; settings: LHb slices of CRS mice
[10] = target: AMPA receptor (AMPAR); settings: cited from earlier work
[11] = system: lateral habenular neurons; test: Hyperpolarization-triggered rebound bursts in LHb brain slices; assay type: cell-based; settings: AP5 100 μM
[12] = system: NMDARs; assay type: cell-based; settings: NBQX, picrotoxin, 0 Mg2+
[13] = system: NMDAR; settings: cited from earlier work
[14] = ketamine 25 ug, 1 hr after infusion
[15] = mibefradil 10 nmol, 1 hr after infusion

| SMILES | blood-brain barrier permeability [2] | also measured |
| --- | --- | --- |
| CCN(c1ccccc1)c1cc(=NC)n(C)c(C)n1.Cl [ZD7288] |  | effect on spontaneous bursts ([1]; ZD7288 50 μM): significant but much smaller effect on bursts than mibefradil |
| C/C=C1\[C@H]2C=C(C)C[C@]1(N)c1ccc(=O)[nH]c1C2 [Huperzine A] | capable of crossing a blood-brain barrier or show at least certain level of blood-brain barrier permeability |  |
| CN[C@]12CCCC[C@H]1Cc1ccccc12 [PD-137889] | capable of crossing a blood-brain barrier or show at least certain level of blood-brain barrier permeability |  |
| CN[C@H](CC(=O)O)C(=O)O [NMDA, N-methyl-D-aspartate] |  | originally silent LHb neurons induced to strong bursting activity ([3]; NMDA 20 μM, NBQX, picrotoxin, 0 Mg2+): 10 out of 13 |
| NS(=O)(=O)Cc1noc2ccccc12 [zonisamide] | shows at least some level of blood-brain barrier permeability |  |
| CNC1(c2ccccc2Cl)CCCCC1=O (centres unmarked) [ketamine] | capable of crossing a blood-brain barrier or show at least certain level of blood-brain barrier permeability | immobility time in the FST [4, 14]: sufficient to quickly rescue the depressive-like behaviors; sustained antidepressant effect in FST ([4]; ketamine 25 ug, 14 d): sustained antidepressant effects for 14 days; LHb bursting activity in vivo ([5]; 10 mg/kg, i.p., 1 h prior to recording, CRS mice): significantly suppressed; cumulative frequency distributions of ISI ([5]; 10 mg/kg, i.p., CRS mice): significantly shifted toward control level; LHb network synchronization (STA and SFC, theta band) ([5]; 1 hr after systemic injection, 10 mg/kg, i.p., CRS mice): reversed to control level; 50% percentile of ISI ([5]; CRS mice treated with ketamine (control 143 ms, CRS 33 ms)): 121 ms; effect in the forced swim test ([6]; ketamine 2.5 mg/kg i.p.): ineffective; NMDA-induced bursting activity ([3]; additional bath application of 100 μM ketamine): blocked; anhedonia, sucrose preference test [7, 14]: sufficient to quickly rescue the depressive-like behaviors; sustained antidepressant effect in SPT ([7]; ketamine 25 ug, 14 d): sustained antidepressant effects for 14 days; increase of bursting neurons in cLH rat model [8]: reversed by ketamine; increase of bursting neurons in CRS mouse model [9]: reversed by ketamine |
| CC1(C)OC(=O)NC1=O [dimethadione] | shows at least some level of blood-brain barrier permeability |  |
| CCC1(C)CC(=O)NC1=O (centres unmarked) [ethosuximide] | shows at least some level of blood-brain barrier permeability | effect in the forced swim test ([6]; ethosuximide 100 mg/kg i.p.): ineffective |
| NC(CCCCCP(=O)(O)O)C(=O)O (centres unmarked) [AP7] | observed but at a low level |  |
| O=C(O)[C@@H]1C[C@H](CP(=O)(O)O)CCN1 (racemic) [Selfotel] | capable of crossing a blood-brain barrier or show at least certain level of blood-brain barrier permeability |  |
| CN1C(=O)CC(C)(c2ccccc2)C1=O (centres unmarked) [methsuximide] | shows at least some level of blood-brain barrier permeability |  |
| CCCCCCC(C)(C)c1cc(O)c2c(c1)OC(C)(C)[C@H]1CC=C(CO)C[C@H]21 [HU-211] | capable of crossing a blood-brain barrier or show at least certain level of blood-brain barrier permeability |  |
| CN1C(=O)OC(C)(C)C1=O [trimethadione] | shows at least some level of blood-brain barrier permeability |  |
| CCc1cccc(N(C)C(N)=Nc2cccc3ccccc23)c1 [Aptiganel] | capable of crossing a blood-brain barrier or show at least certain level of blood-brain barrier permeability |  |
| COc1ccc2c(c1)[C@]13CCCC[C@@H]1[C@H](C2)N(C)CC3 [Dextromethorphan] | capable of crossing a blood-brain barrier or show at least certain level of blood-brain barrier permeability |  |
| CCCC(CCC)C(=O)[O-].[Na+] [sodium valproate] | shows at least some level of blood-brain barrier permeability |  |
| O=C(O)C1CN(C/C=C/P(=O)(O)O)CCN1 (centres unmarked) [CPPene] | capable of crossing a blood-brain barrier or show at least certain level of blood-brain barrier permeability |  |
| NS(=O)(=O)c1cccc2c1c([N+](=O)[O-])cc1nc(O)c(O)nc12 [NBQX] |  | IC50 [10]: 0.15 µM; spontaneous bursts ([1]; NBQX 10 μM): reduced bursts, but to a much smaller extent than NMDAR blockade |
| O=C1NC(=O)C(c2ccccc2)(c2ccccc2)N1 [phenytoin] | shows at least some level of blood-brain barrier permeability |  |
| NCC1(CC(=O)O)CCCCC1 [Gabapentin] | do not have blood-brain barrier permeability |  |
| CNCC[C@@H](Oc1ccccc1C)c1ccccc1 [Atomoxetine] | capable of crossing a blood-brain barrier or show at least certain level of blood-brain barrier permeability |  |
| CC(C)(C)CCN1C[C@@H]2C(CNC(=O)c3cc(Cl)cc(Cl)c3)[C@@H]2C1 (some centres unmarked) [ML218] | shows at least some level of blood-brain barrier permeability |  |
| COCC(=O)O[C@]1(CCN(C)CCCc2nc3ccccc3[nH]2)CCc2cc(F)ccc2[C@@H]1C(C)C [mibefradil] | has no blood-brain barrier permeability | immobility in the FST [4, 15]: quickly rescued the depressive-like behaviors; anhedonia in the SPT [7, 15]: quickly rescued the depressive-like behaviors |
| CC12CC3CC(C)(C1)CC(N)(C3)C2 [memantine hydrochloride] | capable of crossing a blood-brain barrier or show at least certain level of blood-brain barrier permeability |  |
| O=C(O)c1cc(=O)c2ccccc2[nH]1 [kynurenic acid] | capable of crossing a blood-brain barrier or show at least certain level of blood-brain barrier permeability |  |
| NC(CCCP(=O)(O)O)C(=O)O (centres unmarked) [AP5] | do not have blood-brain barrier permeability | probability of neuron hyperpolarization-induced burst [11]: 0.12; immobile time in the FST ([4]; AP5 40 nmol, 0.5 h): efficiently reduced the immobile time; spontaneous burst-firing ([1]; AP5 100 μM bath application): stopped burst-firing; hedonic behaviors in the SPT ([7]; AP5 40 nmol, 0.5 h): increased hedonic behaviors; isolated NMDAR-currents (NMDAR-EPSCs) [12]: abolished; IC50 [13]: 30 µM |
| NC12CC3CC(CC(C3)C1)C2 [Amantadine] | capable of crossing a blood-brain barrier or show at least certain level of blood-brain barrier permeability |  |
| N[C@@H](Cc1ccccn1)c1ccccc1 [AZD6765] | capable of crossing a blood-brain barrier or show at least certain level of blood-brain barrier permeability |  |
